The values that follow come from paper PMC9513230, “Inhibition of Plasmodium falciparum Hsp70-Hop partnership by 2-phenylthynesulfonamide” (Frontiers in Molecular Biosciences, 2022).

One test concerns PfHsp70-1. Kind of test: MDH heat-induced aggregation suppression (holdase chaperone activity). Type of test: biochemical, Plasmodium falciparum. The conditions noted are these: MDH aggregation at 51°C, 360 nm; PES 5-100 nM. The protocol:
In the current study, we investigated the effect of PES on the holdase chaperone activity of PfHsp70-1. The assay was initiated by adding 1,25 µM MDH and 0,75 µM PfHsp70-1 to the assay buffer (50 mM Tris-HCl, 100 mM NaCl; pH 7.4) and heated to 51°C. Aggregation of MDH was monitored as a function of light scattering at 360 nm over 30 min at 51°C in a SpectraMax M3 (Molecular Devices, United States) microplate spectrometer. The assay was repeated at varying final concentrations (5, 15, 25, 50, 100 nM) of PES. The chaperone function of PfHsp70-1 under various experimental conditions was compared to the activity of the chaperone recorded in the absence of nucleotide. Statistical analysis was conducted using a student t-test and a p < 0.05 represented functionally significant variation.

A further test deals with PfHsp70-1NBD (Plasmodium falciparum, UniProt Q8IB24). Briefly: SPR equilibrium binding to immobilized PfHsp70-1NBD. The conditions noted are these: ligand PfHsp70-1NBD immobilized, 25°C.
For test [1], the target named is T1, PfHop (Plasmodium falciparum, UniProt Q8ILC1).
T1 construct: His; made in house; host or cells: E. coli XL1 Blue
T1 sequence (Q8ILC1 1-564): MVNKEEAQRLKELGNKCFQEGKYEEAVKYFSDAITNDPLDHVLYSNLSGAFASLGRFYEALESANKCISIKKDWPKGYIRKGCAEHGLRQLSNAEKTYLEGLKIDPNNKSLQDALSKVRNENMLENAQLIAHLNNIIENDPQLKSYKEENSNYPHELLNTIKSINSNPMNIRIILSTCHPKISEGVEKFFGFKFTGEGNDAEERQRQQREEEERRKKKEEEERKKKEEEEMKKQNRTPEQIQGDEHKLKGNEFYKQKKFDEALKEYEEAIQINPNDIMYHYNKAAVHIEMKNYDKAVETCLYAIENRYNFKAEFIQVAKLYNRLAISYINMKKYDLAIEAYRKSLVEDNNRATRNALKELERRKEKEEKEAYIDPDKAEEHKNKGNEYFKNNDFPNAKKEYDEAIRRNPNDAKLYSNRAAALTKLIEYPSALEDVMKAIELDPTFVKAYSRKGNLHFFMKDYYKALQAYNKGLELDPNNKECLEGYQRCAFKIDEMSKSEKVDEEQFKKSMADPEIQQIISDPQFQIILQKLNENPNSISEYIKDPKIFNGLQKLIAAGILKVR
Kind of test: Intrinsic fluorescence analysis of PfHop tertiary structure. The conditions noted are these: PfHop 4 µM with 20 µM PES, excitation 295 nm; apo state 339 nm. As for the experimental part:
The effect of PES on the tertiary structural conformation of recombinant PfHsp70-1 and PfHop proteins relative to the nucleotide-dependent conformations were assessed by monitoring intrinsic fluorescence as previously described ([Zininga et al., 2016]; [Lebepe et al., 2020]). […] The assay was repeated in the presence of 20 µM PES. Fluorescence emission spectra were monitored at 300–400 nm after initial excitation at 295 nm. The spectra data collected from seven spectral scans were averaged and processed taking into account the baseline (effect of buffer in the absence of protein).

Test [2] addresses PfHsp70-1-PfHop association (Plasmodium falciparum, UniProt Q8IB24+Q8ILC1). Briefly: ELISA for the direct association of PfHsp70-1 and PfHop. The test is classed as biochemical. The protocol:
An enzyme-linked immunosorbent assay (ELISA) was used to validate the effect of PES on the direct association of PfHsp70-1 and PfHop following a previously described protocol ([Mabate et al., 2018]). Briefly, ligand (5 μg/ml of PfHsp70-1) suspended in 5 mM sodium bicarbonate (NaHCO3) at pH 9.5 was noncovalently immobilized onto a 96 well plate overnight at 4 C. BSA (5 μg/ml) was used as a ligand for the negative control. The wells were washed with 150 µl TBST which contains (Tris-buffered saline- Tween (TBST; 20 mM Tris HCl, pH 7.5, 500 mM NaCl supplemented with 0.1% Tween 20) prior to blocking with 5% fat-free milk in TBST and incubated at 25 C for 1 h. The wells were washed using TBST for a total of 10 min. Varying concentrations (0–1,000 nM) of analyte PfHop were added to the wells and incubated for 2 h at 25 °C. To remove the unbound analyte, the plate was washed with 150 µl TBST three times before the addition of rabbit-raised α-PfHop antibody (1: 4,000) followed by incubation at 25°C for 1 h. Subsequently, the wells were washed with 150 µl TBST three times before the addition of 100 µl secondary HRP conjugated goat-raised α-rabbit antibody (1: 4,000) and incubated for 45 min at 25 °C. The substrate, 3,3’5,5’ –tetramethylbenzidine (TMB) (Bio Scientific, United States) was added into the wells and incubated for 2 min at 25 C. Color development was monitored by recording absorbance readings at 370 nm at 5 min time intervals for 30 min using a SpectraMax M3 Microplate reader (Molecular Devices, United States). To determine the effect of the inhibitor, the assay was conducted in the presence of 25 µM) of PES. […] Furthermore, the assay was repeated interchanging the ligand and analyte to validate data reproducibility. The generated data were analyzed taking into account the background signal generated by BSA which served as the control protein. The absorbance values obtained at the highest concentration of each analyte were averaged to represent maximum (100%) binding. Titration curves were then generated using GraphPad Prism 9.3.1 (GraphPad Software, United States). The relative binding affinities of PES under each experimental setting were normalized relative to the affinity estimated for assay conducted in the absence of nucleotide at the highest concentration of PfHop. Statistical analysis was conducted to establish significant differences at p < 0.05 using a student t-test.
(ELISA stands for enzyme-linked immunosorbent assay.)

The subject of test [3] is Asexual P. falciparum strain 3D7 parasites. Briefly: Parasite growth inhibition assay (SYBR Gold). As to conditions: Plasmodium falciparum; P. falciparum 3D7, asexual blood stage, 96 h, n = 3; read-out: IC50 parasite growth. Type of test: cell-based. As for the experimental part:
Parasite growth without any drug present, which allowed the parasites to proliferate unrestricted, was used as negative drug control. SYBRTM Gold DNA stain (Invitrogen, ThermoFisher Scientific Inc., Germany) was used to measure the proliferation of the parasites compared to the controls as previously described ([[…] al., 2004]). Fluorescence was measured using a TECAN Spark® multimode microplate reader (Tecan Trading AG, Switzerland) and the data were analyzed using SigmaPlot, version 12 (Systat Software Inc., IL, United States).

In test [4] the target is T1, PfHop. Briefly: SPR equilibrium binding to immobilized PfHop. As to conditions: SPR, ligand PfHop immobilized, 25°C; read-out: KD. The protocol:
The steady-state equilibrium binding kinetics for the inhibitors on either PfHsp70-1 or PfHop were investigated using BioNavis Navi 420A ILVES multi-parametric surface plasmon resonance (MP-SPR) system (BioNavis, Finland) following a previously described method ([Lebepe et al., 2020]; [Chakafana et al., 2021]). Briefly, filter-sterilized de-gassed PBS (4.3 mM Na2HPO4, 1.4 mM KH2PO4, 137 mM NaCl, 3 mM KCl, 0.005% (v/v) Tween 20, and 20 mM EDTA; pH 7.4) was used as running buffer for the assay. The ligand (0.1 μg/ml of PfHsp70-1/PfHop) was immobilized onto a carboxymethyl dextran (CMD 3-D) gold sensor chip through amine coupling. PES was injected (flow rate of 50 μl/min) as analyte at varying final concentrations (0, 1.25, 2.5, 5, 10, 20 nM). […] Steady-state equilibrium was achieved after allowing the interaction to occur for 8 min at 25°C, followed by dissociation for 4 min at 25°C, respectively. The data generated were analyzed using Data Viewer (BioNavis, Finland) after subtraction of baseline (signals generated on the chip surface without protein immobilized and buffer without inhibitor). The resultant sensorgrams were analyzed to determine the equilibrium binding affinities using Trace Drawer software version 1.8 (Ridgeview Instruments; Sweden).

PfHsp70-1-PfHop association, sequence (Q8IB24 entry or part of it, one chain of several): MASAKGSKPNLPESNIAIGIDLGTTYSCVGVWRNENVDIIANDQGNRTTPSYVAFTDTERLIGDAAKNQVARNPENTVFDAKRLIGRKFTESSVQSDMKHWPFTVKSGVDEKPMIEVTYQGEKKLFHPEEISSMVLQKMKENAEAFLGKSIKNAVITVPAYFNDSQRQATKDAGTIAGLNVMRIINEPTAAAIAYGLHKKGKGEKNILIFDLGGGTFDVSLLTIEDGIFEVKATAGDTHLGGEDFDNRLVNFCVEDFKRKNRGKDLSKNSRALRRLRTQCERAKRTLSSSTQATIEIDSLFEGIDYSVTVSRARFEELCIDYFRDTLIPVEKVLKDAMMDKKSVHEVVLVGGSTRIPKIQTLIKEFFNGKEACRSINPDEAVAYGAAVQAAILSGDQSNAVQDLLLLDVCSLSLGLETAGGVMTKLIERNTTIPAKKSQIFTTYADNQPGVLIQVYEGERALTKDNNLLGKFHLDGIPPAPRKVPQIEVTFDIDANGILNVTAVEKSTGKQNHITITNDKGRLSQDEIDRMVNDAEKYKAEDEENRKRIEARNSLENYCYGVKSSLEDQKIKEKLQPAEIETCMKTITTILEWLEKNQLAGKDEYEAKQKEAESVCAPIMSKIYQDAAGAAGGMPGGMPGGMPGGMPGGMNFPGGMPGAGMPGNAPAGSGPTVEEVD
PfHsp70-1NBD, sequence (Q8IB24 entry or part of it): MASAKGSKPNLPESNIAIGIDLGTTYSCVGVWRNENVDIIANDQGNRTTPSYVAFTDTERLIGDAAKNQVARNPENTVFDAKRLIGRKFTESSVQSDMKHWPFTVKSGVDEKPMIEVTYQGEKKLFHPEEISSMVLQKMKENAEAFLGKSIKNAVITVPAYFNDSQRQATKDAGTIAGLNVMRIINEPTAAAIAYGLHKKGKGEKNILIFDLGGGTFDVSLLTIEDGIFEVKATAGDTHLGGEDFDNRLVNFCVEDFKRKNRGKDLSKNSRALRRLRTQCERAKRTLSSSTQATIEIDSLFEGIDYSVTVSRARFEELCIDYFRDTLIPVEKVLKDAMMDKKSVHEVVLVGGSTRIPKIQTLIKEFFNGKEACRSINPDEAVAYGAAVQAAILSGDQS
Experimental for PfHsp70-1NBD: The steady-state equilibrium binding kinetics for the inhibitors on either PfHsp70-1 or PfHop were investigated using BioNavis Navi 420A ILVES multi-parametric surface plasmon resonance (MP-SPR) system (BioNavis, Finland) following a previously described method ([Lebepe et al., 2020]; [Chakafana et al., 2021]). Briefly, filter-sterilized de-gassed PBS (4.3 mM Na2HPO4, 1.4 mM KH2PO4, 137 mM NaCl, 3 mM KCl, 0.005% (v/v) Tween 20, and 20 mM EDTA; pH 7.4) was used as running buffer for the assay. The ligand (0.1 μg/ml of PfHsp70-1/PfHop) was immobilized onto a carboxymethyl dextran (CMD 3-D) gold sensor chip through amine coupling. […] Similarly, as controls nucleotides (5 µM ATP/ADP) and a known P. falciparum Hsp70 inhibitor, (−)-Epigallocatechin-3-gallate (EGCG; [Zininga et al., 2017b]) were similarly injected at varying final concentrations (0, 1.25, 2.5, 5, 10, 20 nM) over the chip surface. […] The data generated were analyzed using Data Viewer (BioNavis, Finland) after subtraction of baseline (signals generated on the chip surface without protein immobilized and buffer without inhibitor). The resultant sensorgrams were analyzed to determine the equilibrium binding affinities using Trace Drawer software version 1.8 (Ridgeview Instruments; Sweden).

For the molecule `NS(=O)(=O)C#Cc1ccccc1` [PES, 2-Phenylthynesulfonamide], the “Effect on holdase chaperone activity of PfHsp70-1” value in the test with PfHsp70-1 was “inhibited the chaperone activity of PfHsp70-1 in a concentration-dependent fashion”. Besides, the Kd at PfHsp70-1NBD was 7390 ± 90 nM; at PfHop [4], 707 ± 70 nM. Moreover, at PfHop [1], the Fluorescence emission peak was 340 nm. The “Effect on association of PfHsp70-1 and PfHop” value in test [2] (25 µM nucleotide or inhibitor) was “abrogated the interaction of PfHsp70-1 and PfHop”. The IC50 in test [2] (ligand PfHop, analyte PfHsp70-1) came out at 38.1 ± 3.6 nM; in test [2] (ligand PfHsp70-1, analyte PfHop), 32.4 ± 2.1 nM; in test [3] it was 38700 ± 700 nM.

As a reminder, the Kd is a measure of binding affinity in units of concentration. For orientation: IC50 means the concentration that inhibits the measured activity by half.
